Measured values as given in paper PMC7822874, “Chemoprotective antimalarials identified through quantitative high-throughput screening of Plasmodium blood and liver stage parasites” (Scientific Reports, 2021).
Where two headings read alike, the source gives them in different places.

What was measured:
in vitro = conditions: human
[1] = system: Plasmodium falciparum Dd2 asexual blood stage parasites; assay: microbe, parasite or virus in culture; parameters: species or system Plasmodium falciparum Dd2 in human erythrocytes; single determination (one 11-point concentration-response curve); conditions: Plasmodium falciparum, DD2, Erythrocyte, 72 h
[2] = HepG2-A16-CD81EGFP cells, uninfected

Row | Structure (SMILES) | AC50 ([1]; read-out: AC50) | viability at 48 h, 1 µM (in vitro; [2]) | viability at 48 h, 3 µM (in vitro; [2]) | other results
1 | CCCc1cc(=O)oc2c(C)c(O)c(CN3CCCCC3)cc12 [MLS000081526-01] | 3.35 µM | – | – | viability at 66 h (in vitro; [2]): 104%
2 | COCCCNc1nc2cc(OC)c(OC)cc2c2nc(-c3ccccc3)nn12 [NCGC00112853-01] | 0.237 µM | 105% | 99% | –
3 | CCOC(=O)c1cnc2cc(OCC(C)C)c(OCC(C)C)cc2c1O [NCGC00167562-01] | 0.944 µM | 83% | 82% | –
4 | C=C(C)COc1ccc(-c2ncnc(C(F)(F)F)c2-c2ccccc2)c(O)c1 [MLS001216193-01] | 2.37 µM | 104% | 97% | –
5 | Cc1cc(C)cc(N(CC(=O)NCc2ccc3c(c2)OCO3)C(=O)CCC(=O)Nc2ccccn2)c1 [MLS000032464-01] | 4.22 µM | – | – | viability at 66 h (in vitro; [2]): 96.4%
6 | O=c1c(-c2ccc(Br)cc2)coc2c(CN3CCCCC3)c(O)ccc12 [MLS001214902-01] | 2.11 µM | – | – | viability at 66 h (in vitro; [2]): 98.2%
7 | CC1CCCCN1Cc1c(O)ccc2c(=O)c(-c3nc4ccccc4s3)c(N)oc12 (stereo not shown) [MLS000591245-01] | 1.06 µM | 98% | 95% | –
8 | CCOC(=O)c1c(C)[nH]c(C(=O)CSc2nnc(C3CC3)n2N)c1C [MLS000536141-01] | 1.5 µM | 92% | 89% | –
9 | O=C1/C(=C/Nc2cccc(S(=O)(=O)NC3=NCCCCC3)c2)c2ccccc2C(=O)N1Cc1ccccc1 [MLS000775273-01] | 13.3 µM | – | – | viability at 66 h (in vitro; [2]): 93.2%
10 | CCOC(=O)c1nnn(-c2nonc2-n2cccc2)c1CN1CCCCC1 [MLS000090434-01] | 7.5 µM | 102% | 100% | –
11 | CCc1cc2c(Sc3nc4ccccc4s3)ncnc2s1 [MLS000544746-01] | 1.5 µM | 104% | 101% | –
12 | CCC(=O)N(C1=C(NC(C)C)C(=O)c2ccccc2C1=O)C(C)C [MLS000696323-01] | 2.37 µM | 106% | 105% | –
13 | Cc1nn(-c2nnc(NCc3ccccc3)nn2)c(C)c1Br [MLS000704225-01] | 0.841 µM | 105% | 92% | –
14 | COc1cccc(OC)c1C(=O)NC(S)=Nc1ccc2c(c1)C(=O)N(C)C2=O [MLS000331897-01] | 0.944 µM | – | – | viability at 66 h (in vitro; [2]): 103%
15 | COc1ccc(CNCC(O)(c2ccc(Cl)cc2)c2ccc(Cl)cc2)cc1 [MLS000325709-01] | 1.5 µM | 98% | 96% | –
16 | CC(CCc1ccccc1)NCC(O)c1cccc([N+](=O)[O-])c1 (stereo not shown) [MLS000712395-01] | 0.473 µM | 104% | 106% | –
17 | Cc1cccc(NC(=O)Cn2c(C)c(C#N)c3ccccc32)c1C [MLS000030212-01] | 5.96 µM | 99.9% | – | viability at 48 h (in vitro; [2]): 99.9%
18 | CCN1CCN(Cc2ccc(NC(=O)c3ccc(C)c(NC(=O)C(=O)c4c[nH]c5ccccc45)c3)cc2C(F)(F)F)CC1 [MLS003105967-01] | 1.5 µM | – | – | viability at 66 h (in vitro; [2]): 106%
19 | COc1ccc(NC(C)C(=O)Nc2cc(C(F)(F)F)ccc2N2CCOCC2)c(OC)c1 (stereo not shown) [MLS000334848-01] | 0.841 µM | 100% | 91% | –
20 | CC(C)Oc1ccc(CCc2nnc(S)n2Cc2ccccc2)cc1 [MLS000582839-01] | 5.31 µM | 101% | 103% | –
21 | O=S(=O)(c1ccc(Cl)cc1)N1CCN(/C(S)=N/c2ccccc2F)CC1 [MLS001002653-01] | 2.37 µM | 97% | 94% | –
22 | CC1(C)Cc2c(c(N3CCOCC3)nc3snc(Br)c23)CO1 [MLS000071231-01] | 0.299 µM | 87% | 86% | –
23 | Cc1ccccc1Nc1cc(C)c2c(O)cccc2n1 [MLS000586981-01] | 5.31 µM | 105% | 100% | –

Row | Structure (SMILES) | AC50 ([1]; read-out: AC50) | viability at 48 h, 1 µM (in vitro; [2]) | viability at 48 h, 3 µM (in vitro; [2]) | other results
24 | COc1ccccc1C1c2[nH]c3ccccc3c2C[C@H]2C(=O)N(C3CCN(Cc4ccccc4)CC3)CC(=O)N12 (stereo partly shown) [MLS001215063-01] | 2.11 µM | 87% | 85% | –
25 | O=C(c1ccc([N+](=O)[O-])o1)N1CCN(c2nc3c(F)cc(F)cc3s2)CC1 [MLS001234228-01] | 5.96 µM | 103% | 108% | –
26 | c1ccc2c(NCCc3c[nH]c4ccccc34)c3ccccc3nc2c1 [MLS001195935-01] | 1.88 µM | 92% | 83% | –
27 | COc1ccc(C2=C(Nc3ccc(C)cc3)c3ccccc3C2=O)cc1 [MLS000563980-01] | 4.73 µM | 96% | 90% | –
28 | Oc1ccc(Cl)cc1CNCc1ccc(C(F)(F)F)cc1 [MLS002207454-01] | 4.22 µM | – | – | viability at 66 h (in vitro; [2]): 109%
29 | CCOC(=O)c1cn(CC)c2cc(N3CCSCC3)c(F)cc2c1=O [MLS000038775-01] | 1.68 µM | 89% | 85% | –
30 | CCCN1CCc2c(sc3nc(SC)n(-c4ccccc4)c(=O)c23)C1 [MLS001173550-01] | 2.66 µM | 112% | 101% | –
31 | COc1ccc(C2C(C(=O)N3CCCCC3)CC(=O)N2c2ccc(OC)cc2)cc1 (stereo not shown) [MLS000519691-01] | 7.5 µM | 85% | 91% | –
32 | CCCCCCSc1ccc([C@H]2N[C@@](Cc3ccccc3)(C(=O)OC)[C@H]3C(=O)N(C)C(=O)[C@@H]23)cc1 [MLS001361994-01] | 4.73 µM | 112% | 100% | –
33 | Oc1c2c(nc3ccc(Br)cc13)CCCC2 [MLS000074180-01] | 6.68 µM | 100% | 98% | –
34 | Cc1ccc(S(=O)(=O)NC(=O)Nc2ccc(N(C)C)cc2)cc1 [MLS001098045-01] | 1.33 µM | 100% | 99% | –
35 | COc1cc2c3nnc(-c4ccc(F)cc4)c-3cn(Cc3ccccc3F)c2cc1OC [MLS000419426-01] | 3.76 µM | 113% | 100% | –
36 | CCCN(CCC)CCCNc1ccc(C(=O)Nc2cccc(OC)c2)cc1[N+](=O)[O-] [MLS000689411-01] | 5.96 µM | 106% | 104% | –
37 | Cc1nccn1CC(O)Cn1c2ccccc2c2ccccc21 (stereo not shown) [MLS000527796-01] | 8.41 µM | 103% | – | viability at 48 h (in vitro; [2]): 103%
38 | CC(C)(C)c1ccc(O)c(CN2CCN(c3ccccc3)CC2)c1 [MLS000084717-01] | – | – | – | viability (in vitro): 98.2%; AC50 [1]: 1.5 µM
39 | CC(C)CCNC(=O)c1cc(C(=O)c2cc(Br)ccc2O)cn(CCC(C)C)c1=O [MLS000775608-01] | 0.944 µM | – | – | viability at 66 h (in vitro): 105%
40 | O=C(CC[S+](=O)([O-])c1cc(Br)cc2c1N(C(=O)C1CC1)CC2)Nc1ccc(C(F)(F)F)cc1 [NCGC00107224-01] | – | – | – | viability at 66 h (in vitro; [2]): 97.7%; AC50 [1]: 1.33 µM
41 | CC(C)Cc1cc(C(=O)Nc2cc(Br)ccc2O)no1 [MLS000116399-01] | 4.73 µM | 120% | 110% | –
42 | CCCc1cc(=O)oc2cc(C)cc(OCC(=O)Nc3cccnc3)c12 [MLS001160340-01] | 0.531 µM | 106% | 99% | –
43 | COc1ccc(-c2csc3ncnc(Cl)c23)cc1 [MLS000765103-01] | 4.22 µM | 86% | 86% | –
44 | Cc1ccc(S(=O)(=O)c2nnn3c2nc(N2CCN(c4ccccn4)CC2)c2ccccc23)cc1 [MLS001124278-01] | 7.5 µM | 98.6% | – | viability at 48 h (in vitro; [2]): 98.6%
45 | C=CC1CN2CCC1CC2C(OC(C)=O)c1ccnc2ccc(OC)cc12 (stereo not shown) [MLS000851200-01] | 1.68 µM | – | – | viability at 66 h (in vitro): 99.9%
46 | Cn1nc(C(F)(F)F)c(-c2cccc(C(F)(F)F)c2)c1NC(=O)Nc1ccc(F)cc1 [MLS000830770-01] | 2.37 µM | 98% | 103% | –
